Assay results from ChEMBL document CHEMBL5705896 (ACS Chem Biol, 2013).
Active and inactive are the calls of the source. The calls are words filed in the database; no cut-off is given here.

Tests used:
[1] = molecular target: T1, Histone-lysine N-methyltransferase EZH2 (Homo sapiens, UniProt Q15910); test: Inhibition of EZH2 methyltransferase activity (unknown origin) in PRC2 complex using 3H-SAM as substrate by Scintillation proximity assay
Target sequence in this assay (Q15910 whole entry): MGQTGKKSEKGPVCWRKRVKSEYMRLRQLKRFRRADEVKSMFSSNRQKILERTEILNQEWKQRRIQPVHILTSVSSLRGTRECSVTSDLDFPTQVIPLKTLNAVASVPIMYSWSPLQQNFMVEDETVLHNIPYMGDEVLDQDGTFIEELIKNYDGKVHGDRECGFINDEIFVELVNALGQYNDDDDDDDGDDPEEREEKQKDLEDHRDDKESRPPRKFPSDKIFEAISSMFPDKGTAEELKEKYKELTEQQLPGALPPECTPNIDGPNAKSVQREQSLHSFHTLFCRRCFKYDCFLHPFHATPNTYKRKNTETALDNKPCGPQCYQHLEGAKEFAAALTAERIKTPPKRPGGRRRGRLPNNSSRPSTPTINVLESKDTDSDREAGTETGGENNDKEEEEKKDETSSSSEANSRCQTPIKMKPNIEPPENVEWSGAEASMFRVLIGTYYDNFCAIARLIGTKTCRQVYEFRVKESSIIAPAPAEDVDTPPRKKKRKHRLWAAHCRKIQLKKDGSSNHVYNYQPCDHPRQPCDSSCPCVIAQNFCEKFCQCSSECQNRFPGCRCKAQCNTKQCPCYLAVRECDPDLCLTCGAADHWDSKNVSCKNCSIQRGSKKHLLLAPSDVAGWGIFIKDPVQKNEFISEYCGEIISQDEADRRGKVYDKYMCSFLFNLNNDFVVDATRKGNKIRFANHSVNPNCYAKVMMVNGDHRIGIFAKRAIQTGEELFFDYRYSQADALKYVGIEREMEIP

[2] = molecular target: Histone-lysine N-methyltransferase EZH1 (Homo sapiens, UniProt Q92800); test: Inhibition of EZH1 methyltransferase activity (unknown origin) in PRC2 complex using 3H-SAM as substrate by Scintillation proximity assay
Histone-lysine N-methyltransferase EZH1, sequence (Q92800 whole entry): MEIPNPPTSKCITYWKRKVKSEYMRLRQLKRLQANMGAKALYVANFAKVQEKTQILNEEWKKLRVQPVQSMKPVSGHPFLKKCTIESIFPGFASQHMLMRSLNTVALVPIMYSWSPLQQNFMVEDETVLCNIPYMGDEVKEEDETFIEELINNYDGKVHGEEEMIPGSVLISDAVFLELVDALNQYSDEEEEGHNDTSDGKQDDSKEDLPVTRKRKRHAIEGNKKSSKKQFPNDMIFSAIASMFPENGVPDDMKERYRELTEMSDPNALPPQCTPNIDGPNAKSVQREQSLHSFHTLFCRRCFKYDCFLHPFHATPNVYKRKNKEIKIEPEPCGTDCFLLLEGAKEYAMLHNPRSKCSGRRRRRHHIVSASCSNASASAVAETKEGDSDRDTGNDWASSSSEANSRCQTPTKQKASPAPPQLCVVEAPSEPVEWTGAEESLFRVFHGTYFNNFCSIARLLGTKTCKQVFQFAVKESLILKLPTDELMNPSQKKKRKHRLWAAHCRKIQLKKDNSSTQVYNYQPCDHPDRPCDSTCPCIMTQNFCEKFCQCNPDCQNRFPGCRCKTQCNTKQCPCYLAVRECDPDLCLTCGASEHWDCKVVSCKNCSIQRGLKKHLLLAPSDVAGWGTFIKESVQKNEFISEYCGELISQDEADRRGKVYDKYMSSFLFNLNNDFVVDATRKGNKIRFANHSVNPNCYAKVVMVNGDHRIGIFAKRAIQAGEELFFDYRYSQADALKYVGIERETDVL

[3] = molecular target: Histone-lysine N-methyltransferase EZH2 (Homo sapiens, UniProt Q15910, Y641F); test: Inhibition of EZH2 Y641F mutant (unknown origin) using HMT as substrate incubated for 60 mins by luminescence based analysis
Histone-lysine N-methyltransferase EZH2 (Homo sapiens, UniProt Q15910, Y641F), sequence (Q15910 whole entry Y641F): as the sequence (Q15910 whole entry) above, with Y641F counted along it

[4] = Cytotoxicity against human MCF-10A cells assessed as reduction in cell viability by alamar blue assay; assay type: toxicity, cell-based
DB [5] = test: Antiproliferative activity against human DB cells assessed as reduction in cell viability at 3000 nM measured after 8 days by cell proliferation assay; assay type: functional, cell-based; settings: time 8.0 day
DB [6] = test: Downregulation of H3K27me3 level in human DB cells at 3000 nM measured after 3 days; assay type: functional, cell-based; settings: time 3.0 day
DB [7] = test: Downregulation of EZH2 level in human DB cells at 3000 nM measured after 3 days; assay type: functional, cell-based; settings: time 3.0 day
[8] = molecular target: Histone-lysine N-methyltransferase EZH2 (Mus musculus) (UniProt Q61188); test: Binding affinity to EZH2 in mouse MEF cells expressing YPet fluorophore assessed as increase in fluorescence intensity in nucleus at 3.75 uM incubated for 15 mins; assay type: cell-based
Histone-lysine N-methyltransferase EZH2 (Mus musculus), sequence (Q61188 whole entry): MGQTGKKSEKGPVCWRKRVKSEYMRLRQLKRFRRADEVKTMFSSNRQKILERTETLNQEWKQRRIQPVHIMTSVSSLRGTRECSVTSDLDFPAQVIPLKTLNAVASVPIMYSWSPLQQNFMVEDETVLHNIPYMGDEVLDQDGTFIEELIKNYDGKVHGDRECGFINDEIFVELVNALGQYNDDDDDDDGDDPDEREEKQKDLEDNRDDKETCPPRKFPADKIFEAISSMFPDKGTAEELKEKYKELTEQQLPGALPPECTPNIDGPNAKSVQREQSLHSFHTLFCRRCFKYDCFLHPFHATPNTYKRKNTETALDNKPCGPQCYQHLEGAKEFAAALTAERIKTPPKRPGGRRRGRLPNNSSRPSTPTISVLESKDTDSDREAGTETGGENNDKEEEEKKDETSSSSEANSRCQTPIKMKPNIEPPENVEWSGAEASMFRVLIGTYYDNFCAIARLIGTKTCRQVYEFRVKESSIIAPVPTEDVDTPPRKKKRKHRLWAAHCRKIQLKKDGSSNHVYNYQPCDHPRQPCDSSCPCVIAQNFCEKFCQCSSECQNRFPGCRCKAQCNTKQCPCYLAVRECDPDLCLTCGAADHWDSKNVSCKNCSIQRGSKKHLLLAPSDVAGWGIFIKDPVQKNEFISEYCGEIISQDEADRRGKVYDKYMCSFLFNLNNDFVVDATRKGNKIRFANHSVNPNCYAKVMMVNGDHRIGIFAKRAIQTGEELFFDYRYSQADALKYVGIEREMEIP

[9] = molecular target: T1, Histone-lysine N-methyltransferase EZH2; test: Binding affinity to GFP-tagged EZH2 in HEK293 cells assessed as nuclear colocalization at 3.75 uM incubated for 15 mins by imaging based analysis; assay type: cell-based
Target sequence in this assay (Q15910 whole entry, looked up): as the sequence (Q15910 whole entry) above

Row | SMILES | IC50 [1] [nM] | also measured
1 | CCCc1cc(C)[nH]c(=O)c1CNC(=O)c1cc(-c2ccc(N3CCN(C)CC3)nc2)cc2c1cnn2C(C)C | < 10 | 
2 | CCCc1cc(C)n(C)c(=O)c1CN(C)C(=O)c1cc(-c2ccc(N3CCN(C(C)C)CC3)nc2)cc2c1cnn2C(C)C | 13000 | IC50 [2]: 62000 nM; IC50 [3]: > 200000 nM; EC50 [4]: 27500 nM; Activity (DB [5]): inactive; Activity (DB [6]): inactive; Activity (DB [7]): inactive
3 | CCCc1cc(C)[nH]c(=O)c1CNC(=O)c1cc(-c2ccc(F)cn2)cc2c1cnn2C(C)C | 10 | 
4 | CCCc1cc(C)[nH]c(=O)c1CNC(=O)c1cc(-c2ccc(N3CCNCC3)nc2)cc2c1cnn2C(C)C | < 10 | 
5 | CCCc1cc(C)[nH]c(=O)c1CNC(=O)c1cc(-c2ccc(N3CCN(CCCCc4cn(CCN5C(=O)/C(=C/C=C/C=C6\N(CCC(=O)OCOC(C)=O)c7ccc(C(=O)OCOC(C)=O)cc7C6(C)C)C(=O)N(CC)C5=O)nn4)CC3)nc2)cc2c1cnn2C(C)C | 21 | Activity [8]: Active; Activity [9]: Active
6 | CCCc1cc(C)[nH]c(=O)c1CNC(=O)c1cc(-c2ccc(F)cc2)cc2c1cnn2C(C)C | 63 | 
7 | CCCc1cc(C)[nH]c(=O)c1CNC(=O)c1cc(-c2ccc(N3CCN(C(=O)CCOCCOCCOCCOCCOCCOCCOCCOCCOCCOCCOCCOCCNC(=O)CCCC[C@@H]4SC[C@@H]5NC(=O)N[C@@H]54)CC3)nc2)cc2c1cnn2C(C)C | 17 | 
8 | CCCc1cc(C)[nH]c(=O)c1CNC(=O)c1cc(-c2ccc(N3CCN(CC)CC3)nc2)cc2c1cnn2C(C)C | < 10 | 
